Source: article PMC3422259, “Additive Mixture Effects of Estrogenic Chemicals in Human Cell-Based Assays Can Be Influenced by Inclusion of Chemicals with Differing Effect Profiles” (PLoS ONE, 2012)
“Also recorded” adds a separate entry of the source.

Assays:
MCF-7 cells [1] = experiment: Estrogenicity assay, mitogenic endpoint (ESCREEN); settings: ESCREEN; for Signs of estrogenicity (in words): chemical screened as potential modulator, tested alone; for Signs of toxicity at the highest concentrations (in words): highest concentrations shown in Figure 2, may indicate toxicity; for Signs of estrogenicity: Active at concentration: ‘Active’ = positive signal clearly distinguishable from assay variability and noise
Experimental: The ESCREEN assay was performed using cloned MCF-7 cells (described in [6], gifted from A. Soto, Boston) and the established ESCREEN method was followed using an adapted 96-well format. Cells were cultured in DMEM (5% FCS). For experiments, cells were seeded in clear polystyrene 96 well plates at a density of 2,500 cells/well and allowed to attach for 24 hours before washing with rinse media (phenol red-free DMEM, no supplements). […] Test chemicals were dissolved in ethanol to give stock solutions of millimolar concentrations. Test and control solutions were diluted prior to application in dosing media (phenol red free DMEM, 10% charcoal-dextran stripped FCS). The final concentration of ethanol was 0.5% in test and control wells. […] At all stages, media removal from cells was carried out gently and in a controlled fashion by use of an electronic multichannel pipette set to the lowest speed possible. Controls were run as eight replicate wells per plate and compounds were tested in a dilution series comprising eight concentrations, each concentration tested in two replicate wells per plate. The plate layout was designed to reduce variation due to evaporation and spreading of test chemicals, and had been previously optimised in the laboratory. After application of test solutions, plates were incubated for 120 hours before fixation with 10% trichloroacetic acid and sulforhodamine B (SRB) staining to measure protein and allow the indirect quantification of cell number.
(§1) Experiments were performed on different days meaning that results for different dilution series and different batches of the test chemicals were obtained on different days. Each single chemical was tested in three or more independent experiments. Use of normalisation meant that data from different experiments could be reliably combined and compared, as discussed previously. Data was expressed relative to the positive control, rather than as fold change from the vehicle response, for two reasons.
(§2) Results from regression analysis for each test chemicals were used to predict the CA effect for fixed-ratio mixtures designed on 1) equi-effective concentrations (balanced design), 2) possible human serum levels (non-balanced design). The original mathematical formulation of CA that defines for a mixture composed of n components with concentration c1 of the first component, c2 of the second component, and cn for the n-th component a combination effect X is [drawing 1] (1) Here, ECX1, ECX1 …, ECXn are the concentrations of the individual components that on their own produce the same effect X as the mixture, [15] The quotients cn/ECXn are called toxic units and scale all compounds in the mixture relative to their toxicity. They can be interpreted as the contribution of the compound to the total mixture concentration that is expected to produce the mixture effect X. According to equation 1, a mixture effect for a pre-defined effect level X is described only implicitly. However, if the individual concentrations ci are expressed as relative fractions pi to the total mixture concentration ECxMix, then equation 1 can be re-arranged to [drawing 2] (2) which allows the direct calculation of the mixture concentration that is expected to produce the mixture effect X. To form a prediction curve, equation 2 is iterated through for various effect levels resulting in sets of effects and their associated predicted mixture concentration which are then plotted to produce a graph of the effect prediction.
Both equations 1 and 2 require knowledge of the concentration of each mixture component that on its own produces the effect magnitude under consideration. For this reason, these equations cannot be used for predicting mixture effects that exceed the maximal effect of the least efficacious component, because those effect concentrations cannot be defined.

yeast estrogen screen = tested on: yeast estrogen screen; set-up: method as in PMID 19499261; settings: cited from earlier work
MCF-7 cells [2] = experiment: Modulation studies (ESCREEN only): effect of potential modulators on the response evoked by a reference mixture of estrogens (REFmix); format: cell-based, human; settings: for Modulation of the REFmix effect (in words) / Concentration at which complete suppression (full inhibition) of REFmix effect was reached: ESCREEN; for Observed modulation: ESCREEN response to REFmix (Mixture 3d, ca. 50% effect), screening, one experiment; for Concentration at which complete suppression (full inhibition) of REFmix effect was reached: individual modulator screening
Excerpt: Modulation studies comprised screening of individual modulators in low power experiments accompanied by parallel testing of an equimolar mixture of all modulators. This combination of low power screening and mixture testing provides the opportunity to assess a high number of chemicals (16 in this case) without a prohibitive amount of experimental effort. In this case the effects of 16 modulators could be evaluated using a total of 19 experimental plates (16 for screening and 3 for mixture testing).
To normalize for small changes in the absolute value of the positive control and the control response to the selected REFmix concentration, the response evoked by the REFmix control on each plate was defined as the 50% effect and all modulator study results are normalized to that value.
A mixture of modulators (MODmix) was also tested and was composed with a fixed ratio of equimolar concentrations, since the activity of each modulator was not known at the time of designing the mixture.
In these modulator studies, we examined 16 single chemicals (listed in Table 7) and an equimolar mixture of all 16 components for their ability to modulate the effects of a reference mixture (REFmix) which contained 14 food additives and contaminants (Table 1, Mixture 3d). […] Single chemicals were tested individually in single experiments (screening) and then a mixture composed using a fixed ratio of equal molarities was subjected to repeated testing.
Figure 5 Results of modulation studies. […] Experimental results are shown as grey circles representing each replicate (duplicate testing within the assay) and obtained in three independent (A) or one (B–Q) experiment (s). Experimental results were normalized by setting the value observed for the REFmix alone, the concentration of which was selected to evoke a […] of ca. 50%, to 0.5. The positive control values (black circles, eight replicates per experimental plate, 25 nM estradiol) are indicated adjacent to the y-axis. […] A black line indicates a LOESS spline fit to the data (A–Q) and a grey line indicates linear regression fit to the data for individual modulators (B–Q). A vertical dotted line is drawn at a mixture concentration of 1.6 µM (A) or at the concentration of each modulator present at that mixture concentration (0.1 uM, B–Q). Visual inspection of the individual modulator results (B–Q) was used to identify possible modulation, i.e. when the experimental data appears to deviate from the linear regression, or when the linear regression is not horizontal, and when the magnitude of the modulation is outside the variation expected in the assay.

T47D-KBluc cells = experiment: cells; settings: ERLUX
Experimental: T47D-KBluc cells were obtained from the ATCC and the protocol established by the depositing authors was followed. Cells were routinely grown in RPMI media (with 10% foetal calf serum (FCS)). For seven days prior to experiments, cells were maintained in low estrogen conditions by the use of pre-assay media (RPMI, 10% charcoal-dextran stripped FCS, no antibiotics). For experiments, cells were seeded in white polystyrene 96 well plates at a density of 10,000 cells/well and allowed to attach for 24 hours before removal of media, and application of test chemicals. Test chemicals were dissolved in ethanol to give stock solutions of millimolar concentrations. Test and control solutions were obtained by dilution of ethanolic stocks in dosing media (phenol red-free RPMI, 5% charcoal-dextran stripped FCS, no antibiotics), and in all cases the final concentration of ethanol was 0.5%. The positive control was 1 nM estradiol. Positive and vehicle controls were run as eight replicate wells per plate, and compounds were tested in a dilution series comprising eight concentrations, each concentration tested in triplicate. As recommended by Wilson et al. two additional controls were also included on each plate: 1) vehicle control plus an antiestrogen, ICI 182,780 (1 µM), and 2) positive control plus ICI 182,780 (1 µM). […] A crude measure of toxicity was provided by comparing values for treatments that were not positive, with the value of the vehicle control. […] 24 hours after application of test and control solutions, a volume of Steady-Glo assay reagent (Promega) equal to the volume of culture media was added and plates were incubated for ten minutes, with shaking, to allow for cell lysis. Plates were then loaded into a plate reader (FLUOstar Optima, BMG Labtech) and incubated for a further ten minutes in the dark, followed by measurement of luminescence. To reduce variation, the temperature of the plate reader chamber was maintained at 27°C throughout.
as §1
Effect concentrations (ECx) were defined relative to the effects of the estradiol concentration used as the positive control, for example EC50 is the concentration producing an effect of 50% of the positive control (estradiol, 1 nM (ERLUX) or 25 nM (ESCREEN)).
as §2, with “implicitly.” for “implicitly. However, if the individual concentrations ci are expressed as relative fractions pi to the total mixture concentration ECxMix, then equation 1 can be re-arranged to [drawing 2] (2) which allows the direct calculation of the mixture concentration that is expected to produce the mixture effect X. To form a prediction curve, equation 2 is iterated through for various effect levels resulting in sets of effects and their associated predicted mixture concentration which are then plotted to produce a graph of the effect prediction.”

[Cl][Hg][Cl] [HgCl2, Mercury chloride]
Signs of estrogenicity (in words) (MCF-7 cells [1]): None
Signs of toxicity: Possible toxicity at concentration (MCF-7 cells [1]; decrease in value for treated wells below vehicle controls, assignment not certain): Possible toxicity at 10 µM and greater
Modulation of the estrogenicity of estradiol or a ternary mixture of estradiol, estrone and estriol (in words) (yeast estrogen screen): no effect
Modulation of the REFmix effect (in words) (MCF-7 cells [2]): no indication of negative modulation
Observed modulation (MCF-7 cells [2]): None

Nc1ccc([N+](=O)[O-])cc1[N+](=O)[O-] [2,4-dinitroaniline]
Modulation of the estrogenicity of estradiol or a ternary mixture of estradiol, estrone and estriol (in words) (yeast estrogen screen): negative modulation

C[C@@H]1C[C@@H]([C@H](O)CC2CC(=O)NC(=O)C2)C(=O)[C@@H](C)C1 [cycloheximide, reference compound]
Modulation of the estrogenicity of estradiol or a ternary mixture of estradiol, estrone and estriol (in words) (yeast estrogen screen): negative modulation

c1ccc2c(c1)cc1ccc3cccc4ccc2c1c34 [Benzo [a] pyrene]
EC10 (T47D-KBluc cells; concentration producing 10% effect relative to positive control 1 nM estradiol, 24 hours): 862 nM
EC25 (T47D-KBluc cells; concentration producing 25% effect relative to positive control 1 nM estradiol, 24 hours): 2060 nM
Concentration Response Function θ^∧ max (T47D-KBluc cells; estimated maximal model asymptote, effect relative to positive control (1 nM estradiol)): 0.90
Signs of estrogenicity (in words) (MCF-7 cells [1]): None
Estrogenicity when tested alone (in words) (MCF-7 cells [1]; listed as BaP): not active; also recorded: not when tested alone
Modulation of the REFmix effect (in words) (MCF-7 cells [2]): clear negative modulation
Observed modulation (MCF-7 cells [2]): Clear negative
Concentration at which complete suppression (full inhibition) of REFmix effect was reached (MCF-7 cells [2]): ≤ 1 µM
Concentration at which complete suppression (full inhibition) of REFmix effect was reached (MCF-7 cells [2]; listed as BaP): around 1 µM

CCCCC(CC)COC(=O)c1ccccc1C(=O)OCC(CC)CCCC (centres unmarked) [DEHP, Di ethyl hexyl phthalate]
Estrogenicity when tested alone (in words) (T47D-KBluc cells): no estrogenicity
Concentration at which estrogenicity occurred when tested alone (MCF-7 cells [1]): greater than 1 µM
Concentration at which toxicity began (MCF-7 cells [1]; before a full estrogenic response was reached): 5 µM
Signs of toxicity at the highest concentrations (in words) (MCF-7 cells [1]): decline in response
Signs of estrogenicity: Active at concentration (MCF-7 cells [1]): Active at 1 µM or higher
Modulation of the REFmix effect (in words) (MCF-7 cells [2]): no indication of negative modulation
Observed modulation (MCF-7 cells [2]): None

C[S+](C)[O-] [DMSO]
Modulation of the estrogenicity of estradiol or a ternary mixture of estradiol, estrone and estriol (in words) (yeast estrogen screen): no effect

CCCCOC(=O)c1ccccc1C(=O)OCc1ccccc1 [BBP, Butyl benzyl phthalate]
Estrogenicity when tested alone (in words) (T47D-KBluc cells): estrogenic
Concentration at which estrogenic activity seen (T47D-KBluc cells; and above): 0.1 to 1 µM
Toxicity (in words) (T47D-KBluc cells; crude measure within the assay / dose-response analysis): evidence for toxicity
Signs of toxicity at the highest concentrations (in words) (MCF-7 cells [1]): decline in response
Signs of toxicity: Toxic at concentration (MCF-7 cells [1]; reduction in signal at concentrations above those showing estrogenicity): Toxic at 100 µM
Signs of estrogenicity: Active at concentration (MCF-7 cells [1]): Active at 1 µM or higher
Modulation of the REFmix effect (in words) (MCF-7 cells [2]): no indication of negative modulation
Observed modulation (MCF-7 cells [2]): None
